Assay results as given in patent publication US9487529B2, “Macrocyclic compounds as ALK, FAK and JAK2 inhibitors” (Cephalon, Inc., priority 2011, dated 2016).

Settings: from C=Cc1ccc(S(=O)(=O)C(C)C)c(Nc2nc(Nc3cc(Br)c(N4CCN(C)CC4)cc3OC)ncc2Cl)c1; cc_pd bond; Pd(OAc)2 / tri-o-tolylphosphine, Et3N; CH3CN; 31.3 mM; 120.0 °C; 0.25 h

COc1cc(N2CCN(C)CC2)c2cc1Nc1ncc(Cl)c(n1)Nc1cc(ccc1S(=O)(=O)C(C)C)/C=C\2
ring closure, yield of all isomers: 63%
